In publication PMC11191602, “A novel and selective fluorescent ligand for the study of adenosine A2B receptors” (Pharmacology Research & Perspectives, 2024):

What was measured:
NLuc‐A2BR = target: T1, NLuc‐A2BR (Homo sapiens, UniProt P29275); test: cAMP GloSensor luminescence assay in HEK293G cells overexpressing NLuc‐A2BR; format: cell-based; details: 20 nM and 200 nM PSB603‐BY630, overexpressed NLuc‐A2BR
T1 construct: expressed in transfected cells
T1 sequence (P29275 1-332): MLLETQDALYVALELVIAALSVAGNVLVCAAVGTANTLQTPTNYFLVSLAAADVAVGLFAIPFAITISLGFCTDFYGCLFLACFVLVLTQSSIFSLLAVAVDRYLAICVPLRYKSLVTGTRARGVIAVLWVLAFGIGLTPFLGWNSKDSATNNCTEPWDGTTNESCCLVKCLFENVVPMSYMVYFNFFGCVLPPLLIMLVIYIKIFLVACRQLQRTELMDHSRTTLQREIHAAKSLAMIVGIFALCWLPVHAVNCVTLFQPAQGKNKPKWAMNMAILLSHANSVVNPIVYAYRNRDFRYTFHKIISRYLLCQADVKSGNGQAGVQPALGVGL
Procedure: (§1) The cAMP GloSensor™ luminescence assay was performed according to the manufacturer's instructions (Promega Corporation, Madison, WI, USA). Briefly, after 24 h incubation at 37°C and 5% CO2 after cell plating (40 000 cells/well in 100 μL), medium was aspirated from each well of the 96‐well plate. Cells were incubated in 50 μL HEPES buffered saline solution (HBSS; 2 mM sodium pyruvate, 145 mM NaCl, 10 mM D‐glucose, 5 mM KCl, 1 mM MgSO4.7H2O, 10 mM HEPES, 1.3 mM CaCl2, 1.5 mM NaHCO3 in double‐distilled water, pH 7.45) containing 3% GloSensor™ cAMP reagent at 37°C for 1.5 h. For agonist studies, an initial baseline luminescence read was made at time zero, the plate was then removed from the plate‐reader and a further 50 μL HBSS containing agonist (2× final concentration) or HBSS (vehicle control) added. Luminescence was measured on an open channel (gain of 3600) immediately after these additions, and then continuously over 60 min, reading each well once every minute, by a PHERAstar FSX microplate reader (BMG Labtech, Offenburg, Germany) at 37°C. Increases in luminescence are indicative of intracellular cAMP accumulation, thus the temporal changes in relative cytosolic cAMP concentration were measured upon agonist or vehicle addition. Antagonist action was determined following 30 min pre‐incubation of HBSS in the presence of 20 and 200 nM PSB603‐BY630 and read as above. All conditions were performed in triplicates within each plate.

human NLuc‐A2AR = target: T2, human NLuc‐A2AR (Homo sapiens, UniProt P29274); test: NanoBRET saturation binding in HEK293G cells transiently transfected with NLuc‐A2AR; details: non‐specific defined with 1 μM SCH58261; PSB603‐BY630 at concentrations up to 500 nM
T2 construct: expressed in transfected cells; host or cells: HEK293G, transient transfection with pcDNA3.1 NLuc-A2AR (FuGENE HD)
Procedure: The human A2A receptor cDNA was obtained from Missouri S&T cDNA Resource Centre (www.cdna.org) in a pcDNA3.1 expression vector. An N‐terminal nanoluciferase (NLuc)‐labeled human A2AR receptor constructs (NLuc‐A2AR) was then generated in frame with the full length NLuc incorporating a rat 5‐HT3A membrane localisation signal sequence in pcDNA3.1 as described previously.[37] For transient transfections, HEK293G cells were seeded at 20000 cells/well into white walled, clear bottomed 96‐wells plates (Greiner Bio‐One, Stonehouse, UK), coated with 10 μg/mL poly‐D‐lysine, in 100 μL medium/well and incubated at 37°C and 5% CO2 for 18–24 h. […]
Saturation and competition binding assays were performed as previously described.[36] […] The resulting bioluminescence resonance energy transfer (BRET) was measured using a PHERAstar FS plate reader (BMG Labtech) at 37°C. For each well, filtered light emissions at 460 nm (80 nm bandpass) and >610 nm (longpass) for the BODIPY630/650 ligand were simultaneously measured. BRET ratios were calculated by dividing the 610 nm emission by the 460 nm emission. […] For kinetic experiments, cells were preincubated for 10 min with 1:400 dilution of furimazine prior to addition of 200 nM PSB603‐BY630 and BRET ratios determined every 0.5 min. […]

human NLuc‐A3R = target: T3, human NLuc‐A3R (Homo sapiens, UniProt P0DMS8); test: NanoBRET saturation binding in stable HEK293G cell line expressing NLuc‐A3R; details: non‐specific defined with 1 μM MRS‐1220; PSB603‐BY630 at concentrations up to 500 nM
T3 construct: expressed in transfected cells
T3 sequence (P0DMS8 1-318): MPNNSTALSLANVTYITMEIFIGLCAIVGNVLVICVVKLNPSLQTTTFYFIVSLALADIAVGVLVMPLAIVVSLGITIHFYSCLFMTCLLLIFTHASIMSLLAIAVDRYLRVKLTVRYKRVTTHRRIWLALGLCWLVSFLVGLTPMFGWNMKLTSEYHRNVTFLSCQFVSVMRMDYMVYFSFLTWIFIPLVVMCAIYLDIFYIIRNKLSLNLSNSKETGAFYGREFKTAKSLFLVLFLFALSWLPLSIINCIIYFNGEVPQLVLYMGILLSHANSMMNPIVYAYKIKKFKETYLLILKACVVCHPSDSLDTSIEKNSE
Procedure: Saturation and competition binding assays were performed as previously described.[36] Briefly, cells were seeded in 96‐well white clear‐bottomed Greiner plates pre‐treated with 10 μg/mL poly‐D‐lysine (Sigma‐Aldrich, Missouri USA) at a density of 30 000–35 000 cells per well in DMEM supplemented with 10% FBS. […] The NanoLuc substrate, furimazine (Promega Corporation, Wisconsin, USA), was then added to each well (1:400 dilution) and the plate was incubated for 10 min in the dark at 37°C. The resulting bioluminescence resonance energy transfer (BRET) was measured using a PHERAstar FS plate reader (BMG Labtech) at 37°C. For each well, filtered light emissions at 460 nm (80 nm bandpass) and >610 nm (longpass) for the BODIPY630/650 ligand were simultaneously measured. BRET ratios were calculated by dividing the 610 nm emission by the 460 nm emission. All conditions were performed in 2–6 replicates within each plate. For kinetic experiments, cells were preincubated for 10 min with 1:400 dilution of furimazine prior to addition of 200 nM PSB603‐BY630 and BRET ratios determined every 0.5 min. At 60 min, 10 μM MRS‐1706 was added and the ligand‐binding kinetics followed for a further 60 min.

endogenous A2BR = target: T4, endogenous A2BR (Homo sapiens, UniProt P29275); test: cAMP GloSensor luminescence assay in HEK293G cells endogenously expressing A2BR; format: cell-based; details: 20 nM and 200 nM PSB603‐BY630, endogenous A2BR
T4 construct: HEK293G cells that express the cAMP biosensor Glosensor also endogenously express both A2BR and A2AR; host or cells: HEK293G
T4 sequence (P29275 1-332): T1 sequence (P29275 1-332)
Procedure: as §1

T2 sequence (P29274 whole entry): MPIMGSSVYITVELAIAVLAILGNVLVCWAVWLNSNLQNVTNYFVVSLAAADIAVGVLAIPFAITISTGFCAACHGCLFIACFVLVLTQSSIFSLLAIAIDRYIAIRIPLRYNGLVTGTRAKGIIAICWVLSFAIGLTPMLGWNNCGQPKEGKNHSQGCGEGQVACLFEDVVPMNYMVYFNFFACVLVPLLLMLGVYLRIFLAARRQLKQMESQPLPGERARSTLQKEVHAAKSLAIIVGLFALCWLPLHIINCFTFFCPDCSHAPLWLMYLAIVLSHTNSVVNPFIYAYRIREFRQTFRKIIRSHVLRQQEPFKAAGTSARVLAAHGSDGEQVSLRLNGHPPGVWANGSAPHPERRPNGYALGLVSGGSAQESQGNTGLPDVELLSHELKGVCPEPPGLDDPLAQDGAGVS

**Q.** What does the source list for CCCn1c(=O)[nH]c2[nH]c(-c3ccc(S(=O)(=O)N4CCN(c5ccc(OCCNC(=O)CCCCCNC(=O)COc6ccc(/C=C/C7=[N+]8C(=Cc9ccc(-c%10cccs%10)n9[B-]8(F)F)C=C7)cc6)cc5)CC4)cc3)nc2c1=O [PSB603‐BY630]?
**A.** effect on cAMP concentration‐response curve to BAY 60–6583 (NLuc‐A2BR): small increase in the EC50 for BAY 60–6583; specific binding to NLuc‐A2AR (human NLuc‐A2AR): negligible; specific binding to NLuc‐A3R (human NLuc‐A3R): negligible; effect on cAMP concentration‐response curve to BAY 60–6583 (endogenous A2BR): concentration‐dependent reduction in the maximal response to BAY 60–6583 without altering the EC50
